Values quoted from earlier work as cited in patent publication US20110091549A1, “Modulating Drug Release Rate By Controlling The Kinetics Of The pH Transition In Hydrogels” (Confluent Surgical, Inc., priority 2009, published 2011).
Like-named read-outs stand apart in the source and are kept apart here.

Assays:
[1] = free base form compared with the salt form
[2] = drugs having a pKa of from about 7.4 to about 8.5

Row | SMILES | pKa [2] | further results
1 | O=c1[nH]c(=O)n([C@H]2C[C@H](O)[C@@H](CO)O2)cc1Br [Broxuridine] | 7.85 | 
2 | CCCCN1CCCCC1C(=O)Nc1c(C)cccc1C (stereo not drawn) [Bupivacaine, bupivacaine] |  | aqueous solubility [1]: lower aqueous solubility; pKa (transition of the salt form into free base form): about 8.1
3 | CN1CCN(C(c2ccccc2)c2ccc(Cl)cc2)CC1 (stereo not drawn) [Chlorcyclizine] | 7.8 | 
4 | COc1cccc2c1C(=O)c1c(O)c3c(c(O)c1C2=O)C[C@@](O)(C(=O)CO)C[C@@H]3O[C@H]1C[C@H](N)[C@H](O)[C@H](C)O1 [Doxorubicin] |  | pKa: 8.2
5 | CCCN(CC)C(CC)C(=O)Nc1c(C)cccc1C (stereo not drawn) [Etidocaine] | 7.7 | 
